Measured values taken from patent publication US20230226040A1, “COMBINATION THERAPY COMPRISING AN FGFR INHIBITOR AND A KRAS INHIBITOR” (Incyte Corporation, priority 2021, published 2023).
Values joined by “and” are separate entries in the source; they are usually repeats but may differ in a detail not shown here. Identical values can stand only once.

How the values were obtained:
pFRS2a [1] = assay: Western blot of pFRS2a in LU99 cell lysate (90 hours treatment); format: cell-based; settings: LU99 cells; 50 nM KRAS G12C inhibitor alone
Description: FGFR1 and downstream activation marker pFRS2a protein levels were examined in indicated cell lines, as well as markers for epithelial-like cells (E-cadherin) and mesenchymal-like cells (Vimentin).

pFRS2a [2] = assay: Western blot of pFRS2a in LU99 cells (24 hours treatment, with or without rhFGF); format: cell-based; settings: 100 nM KRAS G12C inhibitor, with or without rhFGF stimulation
Protocol: LU99 cells were treated with 100 nM of Compound 2, pemigatinib, Compound 1, or indication combination for 24 hours, and with or without lng/ml recombinant human FGF (rhFGF) before harvesting the lysate.
Cells were seeded in Corning 6-well tissue culture treated plates in RPMI medium with 10% FBS at 6×10^5 cells/well. After 48 hours, cells were or treated with indicated compounds for 24 hours at 37° C., 5% CO2. rhFGF—basic (R&D systems 233-FB) was added at 1 nG/ml for 15 minutes at the end of the experiment as indicated. The cells were washed with PBS and lysed with 1x lysis buffer (Cell Signaling #9803) with protease and phosphatase inhibitors. Twenty-five μg of total protein lysates was subjected to SDS-PAGE and immunoblot analysis using the following Cell Signaling antibodies: pERK (#4370) phospho-FRS2a (#3861) and beta-Actin (#12620).
Cells were seeded in Corning 6-well tissue culture treated plates in RPMI medium with 10% FBS at 6x10^5 cells/well. After 48 hours, cells were or treated with indicated compounds for 24 hours at 37° C., 5% CO2. rhFGF—basic (R&D systems 233-FB) was added at 1 nG/ml for 15 minutes at the end of the experiment as indicated. The cells were washed with PBS and lysed with 1× lysis buffer (Cell Signaling #9803) with protease and phosphatase inhibitors. […]

LU99 cells = assay: siRNA FGFR knockdown plus KRAS G12C inhibitor, Cell Titer Glo proliferation; format: cell-based; settings: 120 h
Protocol: Knockdown efficiency was assessed by Western blot and its effect was measured by cell proliferation inhibition.
The lyophilized siRNA pools or individuals (Dharmacon ON-TARGET plus siRNA from Horizon Discovery) were reconstituted by combining 1× siRNA buffer (200 μL) with lyophilized siRNA (20 nmol); or combining 1× siRNA buffer (100 μL) with lyophilized siRNA (10 nmol). Dharmafect Reagent 1 was prepared at a 1:200 dilution in 1X siRNA buffer. One tube of diluted reagent was prepared for each siRNA dilution. To each tube, the appropriate siRNA was added to Dharmafect Reagent 1 at a 1:400 dilution. The prepared siRNA reagent ([…]) was added to the appropriate number of wells on a 96-well clear bottom Greiner plate and incubated at room temperature for 30 min.
For plating in 96-well pates, 2000 LU99 cells per well in 100 μL of medium were prepared. The prepared cells (100 μL per well) were added to each well of the 96-well plate and incubated at 48 h.
Compound plates were prepared with a compound starting concentration of 5 mM in a 3-fold dilution. Following 48 h transfection incubation, the appropriate compounds were added to the 96-well plate at a final starting concentration of 5 μM in 3-fold dilution (11 point dose response curve). After addition of the compounds, the 96-well plates were incubated at 37° C. for 120 h. After this time, Cell Titer Glo reagent is reconstituted and 100 μL of reagent was added per well. The plates were tapped gently and luminescence was read on a Pherastar microplate reader.

HCC-44 = assay: 5-day Cell Titer Glo combination matrix, Bliss score; format: cell-based; settings: HCC-44 (Lung, Mesenchymal); KRAS inhibitor in combination with pemigatinib; 5 days
Protocol: (§2) Cells were seeded in RPMI medium with 10% HI FBS at a density of 500 cells/well in Greiner, white, clear bottom, 384-well tissue culture treated plates containing 10×10 combination matrices of compound. Plates were incubated at 37° C., 5% CO2 for 5 days. On day 5, Cell Titer Glo reagent was added to the plates and ATP luminescence was detected using a Pherastar FSX reader. The synergy score for the combination effect was calculated using a Bliss score model where the Bliss score=Yab-(Ya+Yb−(YaYb))×100, where Ya and Yb are the monotherapies. Bliss scores >20 are strongly synergistic and a higher Bliss scores indicates a higher level of synergism.
(§3) Cells were seeded in RPMI medium with 10% HI FBS at a density of 500 cells/well in Greiner, white, clear bottom, 384-well tissue culture treated plates containing 10×10 combination matrices of compound. Plates were incubated at 37° C., 5% CO2 for 5 days. On day 5, Cell Titer Glo reagent was added to the plates and ATP luminescence was detected using a Pherastar FSX reader. The synergy score for the combination effect was calculated using a Bliss score model where the Bliss score=Yab−(Ya+Yb−(YaYb))×100, where Ya and Yb are the monotherapies. Bliss scores >20 are strongly synergistic and a higher Bliss scores indicates a higher level of synergism.

Calu-1 = assay: as above; format: cell-based; settings: Calu-1 (Lung, Mesenchymal); KRAS inhibitor in combination with pemigatinib; 5 days
Protocol: as §2

SW-1573 = assay: as above; format: cell-based; settings: SW-1573 (Lung, Mesenchymal); KRAS inhibitor in combination with pemigatinib; 5 days
Protocol: as §2
(§4) Cells were seeded in RPMI medium with 10% HI FBS at a density of 500 cells/well in Greiner, white, clear bottom, 384-well tissue culture treated plates containing 10×10 combination matrices of compound. Plates were incubated at 37° C., 5% CO2 for 5 days. On day 5, Cell Titer Glo reagent was added to the plates and ATP luminescence was detected using a Pherastar FSX reader. Synergy score for the combination effect is calculated using a Bliss score model where the Bliss score=Yab−(Ya+Yb−(YaYb))×100, where Ya and Yb are the monotherapies. Bliss scores >20 are strongly synergistic and a higher Bliss scores indicates a higher level of synergism.
as §3

H358 = assay: as above; format: cell-based; settings: H358 (Lung, Epithelial); KRAS inhibitor in combination with pemigatinib; 5 days
Protocol: as §2, §4, §3

[3] = system: LU99 lung cancer xenograft; assay: LU99 xenograft model, tumor growth inhibition; format: in vivo; settings: NCr nude mice; AMG510 20 mg/kg, pemigatinib 0.3 mg/kg, alone or combined; oral QD, 30 days; last day of treatment
Protocol: The in vivo effect of combining the FGFR1 inhibitor pemigatinib plus the KRAS G12C inhibitor AMG510 was assessed in the LU99 lung cancer model (JCRB0080, JCRB) xenograft model (FIG. 3) in 6 to 8 week old female NCr nude mice (Taconic). Pemigatinib and AMG510 were suspended in 5% N,N-dimethyl acetamide (DMAC)+50 mM Citrate buffer (pH 3.0) in 0.5% methyl cellulose for oral administration. Briefly, mice were inoculated in the left flank with 1×10^7 LU99 cells re-suspended in a PBS and matrigel (Corning Life Sciences, Tewksbury, Mass) solution at 1:1. On Day 7, mice were randomized into 4 groups of 10 mice at approximate mean volume (˜212 mm^3). […] Tumor growth inhibition was calculated using the formula (1−(VT/VC))×100, where VT is the tumor volume of the treatment group on the last day of treatment, and Vc is the tumor volume of the control group on the last day of treatment. […] Statistics were determined using One-Way ANOVA.
Briefly, mice were inoculated in the left flank with 1×10^7LU99 cells re-suspended in a PBS and matrigel (Corning Life Sciences, Tewksbury, Mass) solution at 1:1. […] TGI was calculated using the formula (1−(VT/VC))×100, where VT is the tumor volume of the treatment group on the last day of treatment, and VC is the tumor volume of the control group on the last day of treatment. […]

SW-837 = assay: 5-day Cell Titer Glo combination matrix, Bliss score; format: cell-based; settings: SW-837 (CRC, Epithelial); KRAS inhibitor in combination with pemigatinib; 5 days
Protocol: as §2, §3

H1792 = assay: as above; format: cell-based; settings: H1792 (Lung, Mesenchymal); KRAS inhibitor in combination with pemigatinib; 5 days
Protocol: as §2, §4, §3

[4] = system: MiaPaca2 KRAS G12C resistant clone 23; assay: 5-day Cell Titer Glo viability and Bliss score; format: cell-based; settings: 5-day CTG
Protocol: (§1) For G12C resistant clone generation, MiaPaca2 parent cells were cultured with increasing concentrations of AMG510 (up to 1μM) over time. The viable cells were re-fed fresh media containing AMG510 weekly. Once the AMG510 resistant cells were growing at normal rates in the presence of 1μM AMG510, they were cloned by limiting dilution. Eight clones were selected for continued passage and further experiments.

[5] = system: MiaPaca2 KRAS G12C resistant clone 7; assay: 5-day Cell Titer Glo viability and Bliss score; format: cell-based; settings: 5-day CTG
Protocol: as §1

[6] = system: MiaPaca2 KRAS G12C resistant clone 11; assay: 5-day Cell Titer Glo viability and Bliss score; format: cell-based; settings: CLONE 11, 5-day CTG
Protocol: as §1

[7] = system: MiaPaca2 KRAS G12C resistant clone 28; assay: 5-day Cell Titer Glo viability and Bliss score; format: cell-based; settings: 5-day CTG
Protocol: as §1

[8] = in the absence of FGFR1, FGFR2 or FGFR3

Compound: COC/C=C/C(=O)N1CC[C@H](n2nnc3c(N4CC(C)(N(C)C)C4)nc4c(F)c(-c5ccc(F)c6cccnc56)c(C(F)(F)F)cc4c32)C[C@H]1CC#N [Compound 2, 2-((2S,4S)-4-(4-(3-(dimethylamino)-3-methylazetidin-1-yl)-6-fluoro-7-(5-fluoroquinolin-8-yl)-8-(trifluoromethyl)-1H-[1,2,3]triazolo[4,5-c]quinolin-1-yl)-1-((E)-4-methoxybut-2-enoyl)piperidin-2-yl)acetonitrile]
- protein level of pFRS2a (pFRS2a [1]): elevated the protein level of pFRS2a
- pFRS2a signaling (pFRS2a [2]): elevated
- inhibition of LU99 cell proliferation after siRNA knockdown (LU99 cells; all FGFR isoforms knocked down, in particular in the absence of FGFR1 and FGFR2): higher inhibition in proliferation
- inhibition of LU99 cell proliferation after siRNA knockdown (LU99 cells; [8]): higher inhibition in proliferation

Compound: C=CC(=O)N1CCN(c2nc(=O)n(-c3c(C)ccnc3C(C)C)c3nc(-c4c(O)cccc4F)c(F)cc23)[C@@H](C)C1 [AMG-510]
- Avg. Bliss Score (HCC-44): 4.4
- Avg. Bliss Score (Calu-1): 11.2
- protein level of pFRS2a (pFRS2a [1]): elevated the protein level of pFRS2a
- Avg. Bliss Score (SW-1573): 25.9
- Avg. Bliss Score (H358): 3.7
- TGI (tumor growth inhibition) [3]: 66%
- Avg. Bliss Score (SW-837): −7.7
- Avg. Bliss Score (H1792): 26.7
- % viability, G12C i 111 nM ([4]; G12C i alone (Compound 1 arm)): 83.9%
- % viability, G12C i 111 nM ([4]; G12C i alone (Pemi arm)): 90.9%
- % viability, G12C i 111 nM ([5]; Average, G12C i alone (Compound 1 arm)): 77.6%
- % viability, G12C i 111 nM ([5]; Average, G12C i alone (Pemi arm)): 77.8%
- % viability, G12C i 111 nM ([5]; G12C i alone (Compound 1 arm), single experiments): 67.1% and 88%
- % viability, G12C i 111 nM ([5]; G12C i alone (Pemi arm), single experiments): 69.6% and 90% and 73.7%
- % viability, G12C i 111 nM ([6]; G12C i alone (Compound 1 arm)): 63%
- % viability, G12C i 111 nM ([6]; G12C i alone (Pemi arm)): 67%
- % viability, G12C i 111 nM ([7]; G12C i alone (Compound 1 arm)): 77.5%
- % viability, G12C i 111 nM ([7]; G12C i alone (Pemi arm)): 69.6%
- inhibition of LU99 cell proliferation after siRNA knockdown (LU99 cells; [8]): higher inhibition in proliferation
- inhibition of LU99 cell proliferation after siRNA knockdown (LU99 cells; in the absence of FGFR1 or FGFR4): higher inhibition in proliferation
